Test results reported in patent US20110319392A1, “Thiazole Sulfonamide And Oxazole Sulfonamide Kinase Inhibitors” (priority 2009, published 2011).

Assays:
ErbB2 = biological target: T1, ErbB2 (Homo sapiens, UniProt P04626); assay: ErbB-2 substrate phosphorylation assay (HTRF); assay type: biochemical
T1 construct: made in house; host or cells: baculovirus expression system
Protocol: (§1) Compounds of the present invention were tested for EGFR and ErbB-2 protein tyrosine kinase inhibitory activity in substrate phosphorylation assays using enzymes purified from a baculovirus expression system. Reagent production was conducted essentially as described in Brignola, P. S., et al, (2002) J. Biol. Chem. 277(2):1576-1585.
(§2) The method measures the ability of the isolated enzyme to catalyse the transfer of the gamma-phosphate from ATP onto the tyrosine residue of a biotinylated synthetic peptide referenced “Peptide C” in Brignola, P. S., et al, (2002) J. Biol. Chem. 277(2):1576-1585. The extent of tyrosine phosphorylation was measured using an anti-phosphotyrosine antibody, and quantified by homogenous time-resolved fluorescence (HTRF).
(§3) Reactions were performed in black 384-well polystyrene flat-bottom plates in a final volume of 20 μL. Assays were performed by adding 10 μL of each of the following solutions, Substrate Mix and Enzyme Mix: The Substrate Mix contained 100 mM 3-[N-morpholino]propanesulfonic acid (MOPS) (pH 7.5), 2 mM MnCl2, 20 μM ATP, 0.01% Tween-20, 0.1 mg/mL (BSA), 0.8 uM peptide substrate, and 1 mM dithiothreitol. The Enzyme Mix contained 100 mM MOPS (pH7.5); 0.01% Tween-20; 0.1 mg/mL BSA, and either 0.8 nM EGFR, 10 nM ErbB2, or 1 nM ErbB4. The Enzyme Mix was added to the compound plates and the plates were incubated at 20° C. for 1 hr. The reactions were then started by adding the Substrate Mix.
(§4) After initiating the reaction with the method described above, the reactions were allowed to proceed for 90 minutes at 20° C. The reactions were then terminated by the addition of 20 μL 100 mM EDTA to each well. 40 μL/well of HTRF detection mix were added to the assay plates. The final concentrations of the detection reagents were: 100 mM HEPES (pH7.5), 0.1 mg/mL BSA, 15 nM streptavidin-labeled allophycocyanin (PerkinElmer), and 1 nM europium-labeled anti-phosphotyrosine antibody (Perkin Elmer). Assay plates were left unsealed and were counted in a Wallac Multilabel Counter 1420 (PerkinElmer).
(§5) Compounds under analysis were dissolved in dimethylsulfoxide (DMSO) to 1.0 mM and serially diluted 1 to 3 with DMSO through twelve dilutions. 1 μL of each concentration was transferred to the corresponding well of an assay plate. This creates a final compound concentration range from 0.00027 to 47.6 μM.
(§6) The data for dose responses were plotted as % Inhibition calculated with the data reduction formula 100*(1-(U1−C2)/(C1−C2)) versus concentration of compound where U1 is the unknown value, C1 is the average control value obtained for 4.76% DMSO, and C2 is the average control value obtained for 0.035 M EDTA. Data were fitted with a curve described by:
(§7) where Vmax is the upper asymptote, Y2 is the Y intercept, and K is the IC50. The results for each compound were recorded as pIC50s, calculated as follows: […]

SK-MEL-28 tumor cells = assay: Cell growth inhibition assay (CellTiter-Glo), SK-MEL-28; assay type: cell-based, Human; conditions: Homo sapiens, SK-MEL-28, 72 h; 3 days incubation
Protocol: (§8) Human breast tumor cells (BT474) were cultured in RPMI (Mediatech […]), containing 10% FBS (JRH Biosciences 12176) and 1% penicillin-streptomycin (Invitrogen 15140). Human head and neck tumor cells (HN5) were cultured in high glucose DMEM (Mediatech 50-013-PB) containing 10% FBS and 1% penicillin-streptomycin. Human colon tumor cells (Colo205) were cultured in RPMI (Mediatech 50-020-PB) containing 10% FBS and 1% penicillin-streptomycin. Human melanoma cancer cells (SK-MEL-28) were cultured in EMEM with nonessential amino acids (Mediatech 50-011-PB) containing 10% FBS, 1% sodium pyruvate (JT Baker 3354-04), and 1% penicillin-streptomycin. Human melanoma cancer cells (A375P F11s) were cultured in RPMI (Mediatech 50-020-PB) containing 10% FBS, 1% sodium pyruvate, and 1% penicillin-streptomycin. Human colon cancer cells (HT-29) were cultured in high glucose DMEM (Mediatech 50-013-PB) containing 10% FBS and 1% penicillin-streptomycin. Human melanoma cancer cells (SK-MEL-3) were cultured in McCoy's 5A (50-025-PB) containing 15% FBS, and 1% penicillin-streptomycin. All cell lines were maintained at 37° C. in a humidified 5% CO2, 95% air incubator. Cells were harvested using trypsin/EDTA (Invitrogen 25200), counted using a haemocytometer, and plated. For 96-well assays (using white full-area NUNC plates cat. #136102), cells were plated in 105 μL at the following densities (cells/well): HNS, 500; Colo 205, 500; SK-MEL-28, 500; A375P F11s, 500; HT-29, 500; SK-MEL-3, 500; and BT474, 3000. For 384-well assays (white full-area NUNC plates, cat. #781080), cells were plated in 48 μL at the following densities (cells/well): HNS, 500; Colo205, 500; SK-MEL-28, 500; A375P F11s, 500; HT-29, 500; SK-MEL-3, 500; and BT474, 2000.
(§9) The next day, compounds were diluted as follow: For 96-well assays, 13.5 μL of compound in DMSO were diluted using nine (9) serial 1:3 dilutions of 4.5 μL in 9 of DMSO. Medium (270 μL/well of RPMI with 10% FBS and 1% penicillin-streptomycin) was added to the plates. Aliquots (7 μL) were added to cells in the final assay giving a final DMSO concentration of 0.2%. For 384-well assays, 15 μL of compound in DMSO were diluted using nine (9) serial 1:3 dilutions of 5 μL in 10 μL of DMSO, followed by a further dilution of 5 μL of compound with 95 μL of medium, of which 2 μL were added to cells in the final assay giving a final DMSO concentration of 0.2%. Cells were incubated at 37° C., 5% CO2 for 3 days.
(§10) Total ATP was measured (as a surrogate estimate of cell number) using CellTiter-Glo® reagent (Promega G7571). Briefly, plates were removed from the incubator and allowed to equilibrate to room temperature for 30 minutes. CellTiter-Glo® (25 μL or 55 μL for 384-well or 96-well assays, respectively) reagent was added to each well and plates were shaken on an orbital plate shaker for 2 minutes. Plates were incubated without shaking for a further 30 minutes and read on an LJL Analyst GT reader in luminometer mode with an integration time of 0.5 seconds per well. Percent inhibition of cell growth was calculated relative to DMSO vehicle-treated control wells. Concentration of compound required to give 50% inhibition of vehicle-treated control cell growth (IC50) was interpolated using a 4-parameter fit for determining IC50 using the following equation: Y=A +((B−A)/(1+((C/X)̂D))) where […].

B-Raf = B-Raf (Homo sapiens, UniProt P15056); assay: B-Raf Accelerated MEK ATPase assay (BRAMA), Method A or B; assay type: biochemical; conditions: Method B: final MEK 150 nM, single end point read
Sequence of B-Raf (P15056 whole entry): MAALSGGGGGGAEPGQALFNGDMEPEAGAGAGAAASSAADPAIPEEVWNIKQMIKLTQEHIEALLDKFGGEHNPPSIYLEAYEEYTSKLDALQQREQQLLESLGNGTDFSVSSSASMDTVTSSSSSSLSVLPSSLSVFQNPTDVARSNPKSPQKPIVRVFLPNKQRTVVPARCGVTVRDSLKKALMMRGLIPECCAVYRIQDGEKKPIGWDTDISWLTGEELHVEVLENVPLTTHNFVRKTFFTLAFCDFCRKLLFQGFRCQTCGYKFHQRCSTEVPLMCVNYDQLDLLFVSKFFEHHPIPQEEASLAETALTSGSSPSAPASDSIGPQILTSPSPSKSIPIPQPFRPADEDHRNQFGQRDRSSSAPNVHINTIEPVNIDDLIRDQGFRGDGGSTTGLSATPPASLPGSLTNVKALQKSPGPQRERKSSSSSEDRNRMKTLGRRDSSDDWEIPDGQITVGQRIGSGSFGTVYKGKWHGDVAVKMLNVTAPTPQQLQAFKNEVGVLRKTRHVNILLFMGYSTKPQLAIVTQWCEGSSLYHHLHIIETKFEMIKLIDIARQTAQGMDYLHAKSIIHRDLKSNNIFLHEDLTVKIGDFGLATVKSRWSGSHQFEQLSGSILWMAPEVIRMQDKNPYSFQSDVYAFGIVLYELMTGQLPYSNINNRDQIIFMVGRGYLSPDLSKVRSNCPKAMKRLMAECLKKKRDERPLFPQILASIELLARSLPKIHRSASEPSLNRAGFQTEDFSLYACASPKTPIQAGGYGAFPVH
Protocol: Compounds of the present invention were tested for B-Raf protein serine kinase inhibitory activity in a B-Raf Accelerated MEK ATPase assay (BRAMA). The BRAMA assay is a high sensitivity assay which measures an intrinsic MEK-mediated ATP hydrolysis uncoupled from downstream ERK phosphorylation by coupling the formation of ADP to NADH oxidation through the enzymes pyruvate kinase and lactate dehydrogenase. When ADP production is initiated by addition of catalytic amounts of an activated Raf enzyme and non-phosphorylated MEK, one observes robust ADP production concomitant with Raf-mediated phosphorylation of MEK.
Method A: Specific details of the assay are disclosed in: C. Rominger, M. Schaber, E. May. Assay for B-Raf Activity Based on Intrinsic MEK ATPase Activity. Statutory Invention Registration 11/084,993 (March, 2005). Method B: The method is the same as method A, but includes the following changes: 1) the assay was performed with a final MEK concentration of 150 nM and 2) the assay was read as single end point instead of a kinetic read.

EGFR = biological target: T2, EGFR (Homo sapiens, UniProt P00533); assay: EGFR substrate phosphorylation assay (HTRF); assay type: biochemical
T2 construct: made in house; host or cells: baculovirus expression system
T2 sequence (P00533 25-1210): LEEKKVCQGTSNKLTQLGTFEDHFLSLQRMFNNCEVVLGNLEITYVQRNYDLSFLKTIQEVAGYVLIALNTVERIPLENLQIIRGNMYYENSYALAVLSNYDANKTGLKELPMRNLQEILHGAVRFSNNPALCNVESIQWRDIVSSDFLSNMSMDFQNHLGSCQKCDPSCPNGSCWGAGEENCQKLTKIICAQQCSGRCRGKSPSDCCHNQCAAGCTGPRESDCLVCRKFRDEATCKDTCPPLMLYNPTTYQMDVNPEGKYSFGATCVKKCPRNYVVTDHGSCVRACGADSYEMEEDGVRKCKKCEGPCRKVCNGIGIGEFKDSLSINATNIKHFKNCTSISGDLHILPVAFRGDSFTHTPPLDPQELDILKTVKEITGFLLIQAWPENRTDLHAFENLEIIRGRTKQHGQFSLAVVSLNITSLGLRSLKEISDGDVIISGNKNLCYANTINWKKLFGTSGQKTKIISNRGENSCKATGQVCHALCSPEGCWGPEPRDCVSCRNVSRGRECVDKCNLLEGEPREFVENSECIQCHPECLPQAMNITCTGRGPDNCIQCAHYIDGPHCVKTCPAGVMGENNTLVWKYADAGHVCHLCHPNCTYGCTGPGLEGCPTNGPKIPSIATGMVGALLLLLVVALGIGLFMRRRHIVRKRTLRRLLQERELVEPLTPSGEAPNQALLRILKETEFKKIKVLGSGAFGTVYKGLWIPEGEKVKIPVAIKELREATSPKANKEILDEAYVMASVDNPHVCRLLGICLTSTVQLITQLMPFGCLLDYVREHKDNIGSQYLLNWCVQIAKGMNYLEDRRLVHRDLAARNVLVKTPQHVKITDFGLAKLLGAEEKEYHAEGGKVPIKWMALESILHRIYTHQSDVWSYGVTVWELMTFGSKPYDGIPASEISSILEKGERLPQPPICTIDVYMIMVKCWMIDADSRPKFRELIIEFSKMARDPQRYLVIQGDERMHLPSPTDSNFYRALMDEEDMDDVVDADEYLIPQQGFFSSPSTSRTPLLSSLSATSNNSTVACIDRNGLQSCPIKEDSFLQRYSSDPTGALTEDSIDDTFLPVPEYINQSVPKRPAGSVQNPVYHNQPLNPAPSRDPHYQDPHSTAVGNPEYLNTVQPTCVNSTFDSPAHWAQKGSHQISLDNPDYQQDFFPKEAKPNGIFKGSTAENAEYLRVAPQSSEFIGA
Protocol: as §1, §2, §3, §4, §5, §6, §7

Colo205 tumor cells = assay: Cell growth inhibition assay (CellTiter-Glo), Colo205; assay type: cell-based, Human; conditions: Homo sapiens, COLO 205, 72 h; 3 days incubation
Protocol: as §8, §9, §10

T1 sequence (P04626 23-1255): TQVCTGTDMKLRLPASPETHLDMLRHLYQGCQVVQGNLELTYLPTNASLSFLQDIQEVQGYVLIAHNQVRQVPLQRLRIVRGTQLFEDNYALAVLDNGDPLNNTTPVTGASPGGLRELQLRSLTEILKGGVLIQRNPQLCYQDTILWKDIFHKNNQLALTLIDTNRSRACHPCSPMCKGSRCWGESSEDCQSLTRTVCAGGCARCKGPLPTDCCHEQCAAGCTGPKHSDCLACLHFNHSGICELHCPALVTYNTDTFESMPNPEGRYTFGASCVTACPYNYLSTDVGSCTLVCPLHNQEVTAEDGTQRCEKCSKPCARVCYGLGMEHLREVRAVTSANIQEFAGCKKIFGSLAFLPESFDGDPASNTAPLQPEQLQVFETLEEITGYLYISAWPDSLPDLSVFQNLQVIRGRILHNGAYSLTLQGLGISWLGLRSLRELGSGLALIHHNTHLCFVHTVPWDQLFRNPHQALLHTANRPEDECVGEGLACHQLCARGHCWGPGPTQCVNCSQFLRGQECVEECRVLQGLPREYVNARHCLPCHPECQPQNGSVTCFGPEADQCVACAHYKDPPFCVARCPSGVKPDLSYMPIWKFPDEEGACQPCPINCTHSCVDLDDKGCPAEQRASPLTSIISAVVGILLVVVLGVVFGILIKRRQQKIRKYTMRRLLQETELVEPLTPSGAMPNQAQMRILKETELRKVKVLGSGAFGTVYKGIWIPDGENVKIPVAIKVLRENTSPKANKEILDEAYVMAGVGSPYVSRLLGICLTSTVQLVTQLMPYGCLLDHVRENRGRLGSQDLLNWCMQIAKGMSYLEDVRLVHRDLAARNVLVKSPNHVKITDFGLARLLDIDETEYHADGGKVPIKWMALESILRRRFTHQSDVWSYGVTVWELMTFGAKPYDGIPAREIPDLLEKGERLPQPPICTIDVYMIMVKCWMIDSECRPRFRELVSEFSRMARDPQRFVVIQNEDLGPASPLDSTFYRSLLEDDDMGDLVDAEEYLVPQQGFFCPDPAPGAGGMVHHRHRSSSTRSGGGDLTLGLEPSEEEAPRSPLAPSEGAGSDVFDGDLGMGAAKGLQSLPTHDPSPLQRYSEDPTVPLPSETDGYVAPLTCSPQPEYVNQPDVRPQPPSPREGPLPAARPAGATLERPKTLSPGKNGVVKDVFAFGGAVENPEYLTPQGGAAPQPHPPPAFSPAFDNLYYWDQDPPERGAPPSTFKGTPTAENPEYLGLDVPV

SMILES	IC50 (ErbB2) [nM]	IC50 (SK-MEL-28 tumor cells) [nM]	IC50 (B-Raf) [nM]	IC50 (EGFR) [nM]	IC50 (Colo205 tumor cells) [nM]
CC(C)c1nc(-c2ccc(F)c(NS(=O)(=O)c3ccccc3C(F)(F)F)c2)c(-c2ccnc(Nc3ccc(N4CCOCC4)nc3)n2)s1 [Example 135]	100 to 1000	100 to 1000	< 100	> 1000	100 to 1000
COc1cc(N2CCN(CCS(C)(=O)=O)CC2)c(C)cc1Nc1nccc(-c2oc(N3CCCC3)nc2-c2cccc(NS(=O)(=O)c3c(F)cccc3F)c2)n1 [Example 136]	100 to 1000	100 to 1000	100 to 1000	100 to 1000	100 to 1000
Cc1cc(CS(C)(=O)=O)ccc1Nc1nccc(-c2sc(C(C)C)nc2-c2ccc(F)c(NS(=O)(=O)c3c(F)cccc3F)c2)n1 [Example 138]	> 1000	< 100	< 100	> 1000	100 to 1000
CC(C)c1nc(-c2cccc(NS(=O)(=O)c3c(F)cccc3F)c2)c(-c2ccnc(Nc3cnc(N4CCOCC4)cc3O)n2)s1 [Example 139]	> 1000	100 to 1000	< 100	> 1000	100 to 1000
CC(C)c1nc(-c2cccc(NS(=O)(=O)c3cccc(OC(F)F)c3)c2)c(-c2ccnc(Nc3ccc(N4CCOCC4)nc3)n2)s1 [Example 141]	100 to 1000	100 to 1000	100 to 1000	> 1000	100 to 1000
CC(C)c1nc(-c2cccc(NS(=O)(=O)c3ccc(C(C)(C)C)cc3)c2)c(-c2ccnc(Nc3ccc(N4CCOCC4)nc3)n2)s1 [Example 142]	100 to 1000	> 1000	< 100	> 1000	> 1000
O=S(=O)(Nc1cccc(-c2nc(-c3ccc(F)c(Cl)c3)sc2-c2ccnc(Nc3ccc(N4CCOCC4)nc3)n2)c1F)c1c(F)cccc1F [Example 143]	> 1000	< 100	< 100	> 1000	100 to 1000
COc1cc(N2CCN(CCS(C)(=O)=O)CC2)c(C)cc1Nc1nccc(-c2sc(C(C)C)nc2-c2cc(NS(=O)(=O)c3c(F)cccc3F)ccc2F)n1 [Example 144]	< 100	100 to 1000	100 to 1000	100 to 1000	100 to 1000
